Values quoted from earlier work as cited in patent US20060116369A1, “Certain compounds, compositions, and methods” (priority 2004, published 2006).

System: A549 cells
Details: data provided by National Cancer Institute, Developmental Therapeutic Program

Row | Structure (SMILES) | GI50
1 | CC(=O)O[C@H]1C(=O)[C@@]2(C)[C@H]([C@H](OC(=O)c3ccccc3)[C@]3(O)C[C@H](OC(=O)[C@H](O)[C@@H](NC(=O)c4ccccc4)c4ccccc4)C(C)=C1C3(C)C)[C@]1(OC(C)=O)CO[C@@H]1C[C@@H]2O [paclitaxel] | 4 nM
2 | O=c1[nH]cc(F)c(=O)[nH]1 [5-fluorouracil] | 1000 nM
3 | COc1cccc2c1C(=O)c1c(O)c3c(c(O)c1C2=O)C[C@@](O)(C(=O)CO)C[C@@H]3O[C@H]1C[C@H](N)[C@H](O)[C@H](C)O1 [doxorubicin] | 63 nM
4 | NC(=O)NO [hydroxyurea] | 500000 nM
